Assays:
Type in all cases: in vivo
[1] = test system: panicum, fall (fall panicum Panicum dichotomiflorum); test: Test F pre-/postemergence: panicum, fall
From the text: (§1) Seeds of plant species selected from corn (Zea mays), soybean (Glycine max), velvetleaf (Abutilon theophrasti), lambsquarters (Chenopodium album), poinsettia, wild (wild poinsettia, Euphorbia heterophylla), pigweed, palmer (palmer pigweed, Amaranthus palmeri), waterhemp (common waterhemp, Amaranthus rudis), surinam grass (Brachiaria decumbens), crabgrass, Brazil (Brazilian crabgrass, Digitaria horizontalis), panicum, fall (fall panicum Panicum dichotomiflorum), crabgrass, large (large crabgrass, Digitaria sanguinalis), foxtail, giant (giant foxtail, Setaria faberii), foxtail, green (green foxtail Setaria viridis), goosegrass (Eleusine indica), ragweed (common ragweed, Ambrosia elatior), barnyardgrass (Echinochloa crus-galli), sandbur (southern sandbur, Cenchrus echinatus), arrowleaf sida (Sida rhombifolia), ryegrass, Italian (Italian ryegrass, Lolium multiflorum), dayflower, VA (Virginia (VA) dayflower, Commelina virginica), field bindweed (Convolvulus arvensis), cocklebur (common cocklebur, Xanthium strumarium), morningglory (Ipomoea coccinea), nightshade (eastern black nightshade, Solanum ptycanthum), kochia (Kochia scoparia), nutsedge, yellow (yellow nutsedge, Cyperus esculentus), johnsongrass (Sorghum halepense), smartweed (ladysthumb smartweed, Polygonum persicaria), and beggarticks (hairy beggarticks, Bidens pilosa), were planted into a silt loam soil and treated preemergence with test chemicals formulated in a non-phytotoxic solvent mixture which included a surfactant. At the same time, plants selected from these crop and weed species and also pigweed (Amaranthus retroflexus), waterhemp_RES1 (ALS/Triazine resistant common waterhemp, Amaranthus rudis) and waterhemp_RES2 (ALS/HPPD resistant common waterhemp, Amaranthus rudis) were planted in pots containing a planting medium comprising spaghnum peat moss, vermiculite, wetting agent and starter nutrients treated with postemergence applications of some of the test chemicals formulated in the same manner. Plants ranged in height from 2 to 18 cm for postemergence treatments (1- to 4-leaf stage).
(§2) Treated plants and controls were maintained in a greenhouse for 14 to 21 days, after which time all species were compared to controls and visually evaluated. Plant response ratings, summarized in Table E, are based on a scale of 0 to 100 where 0 is no effect and 100 is complete control. A dash (-) response means no test result.

[2] = test system: ryegrass, Italian (Italian ryegrass, Lolium multiflorum); test: Test F pre-/postemergence: ryegrass, Italian
From the text: as §1, §2

soybean (Glycine max) = test: Test F pre-/postemergence: soybean
From the text: as §1, §2

[3] = test system: surinam grass (Brachiaria decumbens); test: Test F pre-/postemergence: surinam grass; conditions: Preemergence
From the text: as §1, §2

[4] = test system: nightshade (eastern black nightshade, Solanum ptycanthum); test: Test F pre-/postemergence: nightshade; conditions: Preemergence
From the text: as §1, §2

[5] = test system: johnsongrass (Sorghum halepense); test: Test F pre-/postemergence: johnsongrass; conditions: Preemergence
From the text: as §1, §2

[6] = test system: chamomile (scentless chamomile, Matricaria inodora); test: Test D pre-/postemergence: chamomile
In short: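 Pre- and postemergence herbicide screen. Soil for pre: silt loam; post medium: peat moss, vermiculite, wetting agent, starter nutrients. Plant stage at post: 1- to 4-leaf. Readout: visual % control, 14–21 days.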

[7] = test system: mustard, wild (wild mustard, Sinapis arvensis); test: Test D pre-/postemergence: mustard, wild; conditions: Preemergence
From the text: (§3) Seeds of plant species selected from bluegrass (annual bluegrass, Poa annua), blackgrass (Alopecurus myosuroides), canarygrass (Phalaris minor), chickweed (common chickweed, Stellaria media), galium (catchweed bedstraw, Galium aparine), bromegrass, downy (downy bromegrass, Bromus tectorum), field poppy (Papaver rhoeas), field violet (Viola arvensis), foxtail, green (green foxtail, Setaria viridis), deadnettle (henbit deadnettle, Lamium amplexicaule), ryegrass, Italian (Italian ryegrass, Lolium multiflorum), kochia (Kochia scoparia), lambsquarters (Chenopodium album), oilseed rape (Brassica napus), pigweed (Amaranthus retroflexus), Russian thistle (Salsola iberica), chamomile (scentless chamomile, Matricaria inodora), speedwell (bird's-eye speedwell, Veronica persica), barley, spring (spring barley, Hordeum vulgare), wheat, spring (spring wheat, Triticum aestivum), buckwheat, wild (wild buckwheat, Polygonum convolvulus), mustard, wild (wild mustard, Sinapis arvensis), oat, wild (wild oat, Avena fatua), radish, wild (wild radish, Raphanus raphanistrum), windgrass (Apera spica-venti), barley, winter (winter barley, Hordeum vulgare), and wheat, winter (winter wheat, Triticum aestivum) were planted into a silt loam soil and treated preemergence with test chemicals formulated in a non-phytotoxic solvent mixture which included a surfactant. At the same time, these same crop and weed species were planted in pots containing the planting medium comprising spaghnum peat moss, vermiculite, wetting agent and starter nutrients and treated with postemergence applications of the test chemicals formulated in the same manner. Plants ranged in height from 2 to 18 cm (1- to 4-leaf stage).
(§4) Treated plants and controls were maintained in a controlled growth environment for 14 to 21 days after which time all species were compared to controls and visually evaluated. Plant response ratings, summarized in Table D, are based on a scale of 0 to 100 where 0 is no effect and 100 is complete control. A dash (-) response means no test result.

[8] = test system: barley, spring (spring barley, Hordeum vulgare); test: Test D pre-/postemergence: barley, spring
From the text: as §3, §4

[9] = Preemergence, 16 g ai/ha, scale 0 to 100, 0 no effect, 100 complete control
[10] = Preemergence, 31 g ai/ha, scale 0 to 100, 0 no effect, 100 complete control
[11] = Preemergence, 125 g ai/ha, scale 0 to 100
[12] = Preemergence, 250 g ai/ha, scale 0 to 100
[13] = 16 g ai/ha, scale 0 to 100, 0 no effect, 100 complete control
[14] = 31 g ai/ha, scale 0 to 100, 0 no effect, 100 complete control
[15] = Postemergence, 8 g ai/ha, scale 0 to 100
[16] = Postemergence, 16 g ai/ha, scale 0 to 100
[17] = Postemergence, 31 g ai/ha, scale 0 to 100
[18] = Postemergence, 62 g ai/ha, scale 0 to 100
[19] = Postemergence, 125 g ai/ha, scale 0 to 100
[20] = Postemergence, 31 g ai/ha, scale 0 to 100 (0 no effect, 100 complete control)
[21] = Postemergence, 62 g ai/ha, scale 0 to 100 (0 no effect, 100 complete control)
[22] = Postemergence, 125 g ai/ha, scale 0 to 100, 0 no effect, 100 complete control
[23] = Postemergence, 250 g ai/ha, scale 0 to 100 (0 no effect, 100 complete control)
[24] = Preemergence, 62 g ai/ha, scale 0 to 100

In the case of `Cc1nn(-c2ccc(F)cc2F)nc1Oc1ccnc(C(F)(F)F)c1` [Compound 146], the “Plant response rating, Panicum, Fall” value [1, 9] is reported as 0, the “Plant response rating, Panicum, Fall” value [1, 10] is reported as 5 and the “Plant response rating, Panicum, Fall” value [1, 11] is reported as 100. The “Plant response rating, Panicum, Fall” value [1, 12] was 100, the “Plant response rating, Ryegrass, Italian” value [2, 9] was 0 and the “Plant response rating, Ryegrass, Italian” value [2, 10] was 10. The “Plant response rating, Ryegrass, Italian” value [2, 11] was 20, the “Plant response rating, Ryegrass, Italian” value [2, 12] was 25 and the “Plant response rating, Soybean” value (soybean (Glycine max); [9]) was 0. For the same compound, the “Plant response rating, Soybean” value (soybean (Glycine max); [10]) was 0, the “Plant response rating, Soybean” value (soybean (Glycine max); [11]) was 0 and the “Plant response rating, Soybean” value (soybean (Glycine max); [12]) was 0. For the same compound, the “Plant response rating, Surinam Grass” value [3, 13] was 0, the “Plant response rating, Surinam Grass” value [3, 14] was 0 and the “Plant response rating, Surinam Grass” value ([3]; 125 g ai/ha, scale 0 to 100) was 20. The “Plant response rating, Surinam Grass” value ([3]; 250 g ai/ha, scale 0 to 100) was 35, the “Plant response rating, Nightshade” value [4, 13] was 0 and the “Plant response rating, Nightshade” value [4, 14] was 10. For the same compound, the “Plant response rating, Nightshade” value ([4]; 125 g ai/ha, scale 0 to 100) was 65, the “Plant response rating, Nightshade” value ([4]; 250 g ai/ha, scale 0 to 100) was 100 and the “Plant response rating, Johnsongrass” value [5, 13] was 0. For the same compound, the “Plant response rating, Johnsongrass” value [5, 14] was 50, the “Plant response rating, Johnsongrass” value ([5]; 62 g ai/ha, scale 0 to 100) was 60 and the “Plant response rating, Johnsongrass” value ([5]; 125 g ai/ha, scale 0 to 100) was 70. For the same compound, the “Plant response rating, Johnsongrass” value ([5]; 250 g ai/ha, scale 0 to 100) was 100.
For `COc1nn(-c2cccc(F)c2)nc1Cc1ccnc(C(F)(F)F)c1` [Compound 139], the “Plant response rating, Panicum, Fall” value [1, 9] was 0, the “Plant response rating, Panicum, Fall” value [1, 10] was 25 and the “Plant response rating, Panicum, Fall” value [1, 11] was 100. For the same compound, the “Plant response rating, Panicum, Fall” value [1, 12] was 100, the “Plant response rating, Ryegrass, Italian” value [2, 9] was 0 and the “Plant response rating, Ryegrass, Italian” value [2, 10] was 5. For the same compound, the “Plant response rating, Ryegrass, Italian” value [2, 11] was 30, the “Plant response rating, Ryegrass, Italian” value [2, 12] was 95 and the “Plant response rating, Soybean” value (soybean (Glycine max); [9]) was 0. The “Plant response rating, Soybean” value (soybean (Glycine max); [10]) was 0, the “Plant response rating, Soybean” value (soybean (Glycine max); [11]) was 0 and the “Plant response rating, Soybean” value (soybean (Glycine max); [12]) was 35. For the same compound, the “Plant response rating, Surinam Grass” value [3, 13] was 0, the “Plant response rating, Surinam Grass” value [3, 14] was 0 and the “Plant response rating, Surinam Grass” value ([3]; 125 g ai/ha, scale 0 to 100) was 75. For the same compound, the “Plant response rating, Surinam Grass” value ([3]; 250 g ai/ha, scale 0 to 100) was 75, the “Plant response rating, Nightshade” value [4, 13] was 20 and the “Plant response rating, Nightshade” value [4, 14] was 35. For the same compound, the “Plant response rating, Nightshade” value ([4]; 125 g ai/ha, scale 0 to 100) was 100, the “Plant response rating, Nightshade” value ([4]; 250 g ai/ha, scale 0 to 100) was 100 and the “Plant response rating, Johnsongrass” value [5, 13] was 0. For the same compound, the “Plant response rating, Johnsongrass” value [5, 14] was 75, the “Plant response rating, Johnsongrass” value ([5]; 62 g ai/ha, scale 0 to 100) was 90 and the “Plant response rating, Johnsongrass” value ([5]; 125 g ai/ha, scale 0 to 100) was 98. For the same compound, the “Plant response rating, Johnsongrass” value ([5]; 250 g ai/ha, scale 0 to 100) was 100.
In the case of `Cc1nn(-c2ccnc(Cl)c2)nc1Cc1ccnc(C(F)(F)F)c1` [Compound 141], the “Plant response rating, Panicum, Fall” value [1, 15] is reported as 30, the “Plant response rating, Panicum, Fall” value [1, 16] is reported as 50 and the “Plant response rating, Panicum, Fall” value [1, 17] is reported as 50. For the same compound, the “Plant response rating, Panicum, Fall” value [1, 18] was 60, the “Plant response rating, Panicum, Fall” value [1, 19] was 75 and the “Plant response rating, Ryegrass, Italian” value [2, 15] was 10. For the same compound, the “Plant response rating, Ryegrass, Italian” value [2, 16] was 10, the “Plant response rating, Ryegrass, Italian” value [2, 17] was 15 and the “Plant response rating, Ryegrass, Italian” value [2, 18] was 25. For the same compound, the “Plant response rating, Ryegrass, Italian” value [2, 19] was 40, the “Plant response rating, Soybean” value (soybean (Glycine max); [15]) was 50 and the “Plant response rating, Soybean” value (soybean (Glycine max); [16]) was 70. The “Plant response rating, Soybean” value (soybean (Glycine max); [17]) was 80 and the “Plant response rating, Soybean” value (soybean (Glycine max); [19]) was 85.
`Cc1nn(-c2ccc(C(F)(F)F)cc2)nc1Oc1ccnc(C(F)(F)F)c1` [Compound 120] was tested, and the “Plant response rating: Chamomile” value [6, 20] was 25, the “Plant response rating: Chamomile” value [6, 21] was 40 and the “Plant response rating: Chamomile” value [6, 22] was 80. The “Plant response rating: Chamomile” value [6, 23] was 90, the “Plant response rating, Chamomile” value [6, 16] was 10 and the “Plant response rating, Chamomile” value [6, 9] was 0. The “Plant response rating, Chamomile” value [6, 10] was 10, the “Plant response rating, Chamomile” value [6, 24] was 20 and the “Plant response rating, Chamomile” value [6, 11] was 100. The “Plant response rating, Chamomile” value [6, 12] was 100, the “Plant response rating, Mustard, Wild” value [7, 13] was 0 and the “Plant response rating, Mustard, Wild” value ([7]; 62 g ai/ha, scale 0 to 100) was 90. The “Plant response rating, Mustard, Wild” value ([7]; 125 g ai/ha, scale 0 to 100) was 100, the “Plant response rating, Mustard, Wild” value ([7]; 250 g ai/ha, scale 0 to 100) was 100 and the “Plant response rating: Barley, Spring” value [8, 20] was 10. For the same compound, the “Plant response rating: Barley, Spring” value [8, 21] was 15, the “Plant response rating: Barley, Spring” value [8, 22] was 15 and the “Plant response rating: Barley, Spring” value [8, 23] was 30. The “Plant response rating, Barley, Spring” value [8, 16] was 5, the “Plant response rating, Barley, Spring” value [8, 9] was 0 and the “Plant response rating, Barley, Spring” value [8, 10] was 0. For the same compound, the “Plant response rating, Barley, Spring” value [8, 24] was 5, the “Plant response rating, Barley, Spring” value [8, 11] was 10 and the “Plant response rating, Barley, Spring” value [8, 12] was 20.
